Source: US7977345B2, “c-MET modulators and method of use” (Exelixis, Inc., priority 2004, dated 2011)

Experiments:
Type in all cases: biochemical
[1] = biological target: T1, human Flt-3 kinase domain R571-S993 (Homo sapiens, UniProt P36888); assay: flt-3 Luciferase-Coupled Chemiluminescent Kinase assay (LCCA); settings: 5 μM ATP, 3 μM poly-EY, 5 nM Flt-3; read-out: flt-3 inhibition IC50
T1 construct: baculovirus expressed human Flt-3 kinase domain R571-S993; made in house
T1 sequence (P36888 571-993): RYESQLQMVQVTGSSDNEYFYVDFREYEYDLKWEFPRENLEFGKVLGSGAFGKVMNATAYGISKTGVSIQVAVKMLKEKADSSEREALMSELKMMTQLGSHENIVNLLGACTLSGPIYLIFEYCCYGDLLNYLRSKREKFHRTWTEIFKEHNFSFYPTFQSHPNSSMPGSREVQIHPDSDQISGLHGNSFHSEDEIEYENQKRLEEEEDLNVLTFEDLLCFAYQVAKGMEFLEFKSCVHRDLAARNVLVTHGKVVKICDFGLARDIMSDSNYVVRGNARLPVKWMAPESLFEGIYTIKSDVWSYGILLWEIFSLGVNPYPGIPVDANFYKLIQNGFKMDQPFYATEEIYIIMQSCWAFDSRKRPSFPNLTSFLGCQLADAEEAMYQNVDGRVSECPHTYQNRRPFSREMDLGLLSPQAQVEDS
Experimental: (§1) Kinase activity and compound inhibition are investigated using one or more of the three assay formats described below. The ATP concentrations for each assay are selected to be close to the Michaelis-Menten constant (KM) for each individual kinase. Dose-response experiments are performed at 10 different inhibitor concentrations in a 384-well plate format. The data are fitted to the following four-parameter equation: Y=Min+(Max−Min)/(1+(X/IC50)^H) where Y is the observed signal, X is the inhibitor concentration, Min is the background signal in the absence of enzyme (0% enzyme activity), Max is the signal in the absence of inhibitor (100% enzyme activity), IC50 is the inhibitor concentration at 50% enzyme inhibition and H represents the empirical Hill's slope to measure the cooperativity. Typically H is close to unity. c-Met Assay
Biochemical activity for flt-3 was assessed using a Luciferase-Coupled Chemiluminescent Kinase assay (LCCA) format. Kinase activity was measured as the percent ATP remaining following the kinase reaction. Remaining ATP was detected by luciferase-luciferin-coupled chemiluminescence. Specifically, the reaction was initiated by mixing test compounds, 5 μM ATP, 3 μM poly-EY and 5 nM Flt-3 (baculovirus expressed human Flt-3 kinase domain R571-S993) in a 20 uL assay buffer (20 mM Tris-HCL pH7.5, 10 mM MgCl2, 0.01% Triton X-100, 1 mM DTT, 2 mM MnCl2). The mixture is incubated at ambient temperature for 3 hours after which 20 uL luciferase-luciferin mix is added and the chemiluminescent signal read using a Wallac Victor^2 reader. The luciferase-luciferin mix consists of 50 mM HEPES, pH 7.8, 8.5 ug/mL oxalic acid (pH 7.8), 5 (or 50) mM DTT, 0.4% Triton X-100, 0.25 mg/mL coenzyme A, 63 uM AMP, 28 ug/mL luciferin and 40,000 units of light/mL luciferase.

[2] = biological target: human c-Met kinase domain P948-S1343 (Homo sapiens, UniProt P08581); assay: c-Met Luciferase-Coupled Chemiluminescent Kinase assay (LCCA); settings: 1 μM ATP, 1 μM poly-EY, 10 nM c-Met; read-out: c-Met inhibition IC50
Sequence of human c-Met kinase domain P948-S1343 (P08581 1011-1367 limits assumed): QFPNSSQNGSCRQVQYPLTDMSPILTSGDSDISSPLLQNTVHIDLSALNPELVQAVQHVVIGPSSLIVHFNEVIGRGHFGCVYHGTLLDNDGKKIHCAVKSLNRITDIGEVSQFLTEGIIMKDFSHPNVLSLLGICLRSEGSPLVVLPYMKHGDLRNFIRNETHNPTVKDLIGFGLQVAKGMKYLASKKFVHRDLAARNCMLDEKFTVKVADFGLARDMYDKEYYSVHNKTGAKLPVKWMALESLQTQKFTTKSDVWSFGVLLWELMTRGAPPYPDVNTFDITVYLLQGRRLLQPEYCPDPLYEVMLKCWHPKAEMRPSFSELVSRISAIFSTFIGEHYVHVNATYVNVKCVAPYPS
Experimental: as §1
c-Met biochemical activity was assessed using a Luciferase-Coupled Chemiluminescent Kinase assay (LCCA) format as described above. Again, kinase activity was measured as the percent ATP remaining following the kinase reaction. Remaining ATP was detected by luciferase-luciferin-coupled chemiluminescence. Specifically, the reaction was initiated by mixing test compounds, 1 μM ATP, 1 μM poly-EY and 10 nM c-Met (baculovirus expressed human c-Met kinase domain P948-S1343) in a 20 uL assay buffer (20 mM Tris-HCL pH7.5, 10 mM MgCl2, 0.02% Triton X-100, 100 mM DTT, 2 mM MnCl2). The mixture is incubated at ambient temperature for 2 hours after which 20 uL luciferase-luciferin mix is added and the chemiluminescent signal read using a Wallac Victor^2 reader. The luciferase-luciferin mix consists of 50 mM HEPES, pH 7.8, 8.5 ug/mL oxalic acid (pH 7.8), 5 (or 50) mM DTT, 0.4% Triton X-100, 0.25 mg/mL coenzyme A, 63 uM AMP, 28 ug/mL luciferin and 40,000 units of light/mL luciferase.

[3] = biological target: T2, human KDR kinase domain D807-V1356 (Homo sapiens, UniProt P35968); assay: KDR Luciferase-Coupled Chemiluminescent Kinase assay (LCCA); settings: 3 μM ATP, 1.6 μM poly-EY, 5 nM KDR; read-out: KDR inhibition IC50
T2 construct: baculovirus expressed human KDR kinase domain D807-V1356; made in house
T2 sequence (P35968 807-1356): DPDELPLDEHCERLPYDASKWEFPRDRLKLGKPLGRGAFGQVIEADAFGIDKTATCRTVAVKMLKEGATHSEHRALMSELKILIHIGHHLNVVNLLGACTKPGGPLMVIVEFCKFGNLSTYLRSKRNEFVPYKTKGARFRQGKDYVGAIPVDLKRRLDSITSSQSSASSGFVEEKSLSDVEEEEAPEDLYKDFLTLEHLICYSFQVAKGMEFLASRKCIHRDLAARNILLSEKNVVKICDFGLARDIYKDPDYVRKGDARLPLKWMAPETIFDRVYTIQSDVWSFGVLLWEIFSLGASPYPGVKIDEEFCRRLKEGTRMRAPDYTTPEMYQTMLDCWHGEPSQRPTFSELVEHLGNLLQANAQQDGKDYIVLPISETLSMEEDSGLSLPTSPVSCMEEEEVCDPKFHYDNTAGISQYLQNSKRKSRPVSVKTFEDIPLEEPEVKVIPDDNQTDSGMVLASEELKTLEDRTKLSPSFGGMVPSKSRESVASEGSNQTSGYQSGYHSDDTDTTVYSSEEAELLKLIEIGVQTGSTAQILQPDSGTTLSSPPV
Experimental: as §1
KDR biochemical activity was assessed using a Luciferase-Coupled Chemiluminescent Kinase assay (LCCA) format. Kinase activity was measured as the percent ATP remaining following the kinase reaction. Remaining ATP was detected by luciferase-luciferin-coupled chemiluminescence. Specifically, the reaction was initiated by mixing test compounds, 3 μM ATP, 1.6 μM poly-EY and 5 nM KDR (baculovirus expressed human KDR kinase domain D807-V1356) in a 20 uL assay buffer (20 mM Tris-HCL pH7.5, 10 mM MgCl2, 0.01% Triton X-100, 1 mM DTT, 3 mM MnCl2). The mixture is incubated at ambient temperature for 4 hours after which 20 uL luciferase-luciferin mix is added and the chemiluminescent signal read using a Wallac Victor^2 reader. The luciferase-luciferin mix consists of 50 mM HEPES, pH 7.8, 8.5 ug/mL oxalic acid (pH 7.8), 5 (or 50) mM DTT, 0.4% Triton X-100, 0.25 mg/mL coenzyme A, 63 uM AMP, 28 ug/mL luciferin and 40,000 units of light/mL luciferase.

SMILES	IC50 [1]	IC50 [2]	IC50 [3]
O=C(CC(=O)Nc1ccc(Oc2ncnc3[nH]ccc23)c(F)c1)Nc1ccc(F)cc1 [Entry 1, N-(4-fluorophenyl)-N′-[3-fluoro-4-(7H-pyrrolo[2,3-d]pyrimidin-4-yloxy)phenyl]propanediamide]	< 50 nM	50 to 500 nM	50 to 500 nM
O=C(Nc1ccc(F)cc1)C1(C(=O)Nc2ccc(Oc3ncnc4[nH]ccc34)c(F)c2)CC1 [Entry 2, N-(4-fluorophenyl)-N′-[3-fluoro-4-(7H-pyrrolo[2,3-d]pyrimidin-4-yloxy)phenyl]cyclopropane-1,1-dicarboxamide]	50 to 500 nM	< 50 nM	< 50 nM
O=C(Cc1ccccc1)NC(=S)Nc1ccc(Oc2ncnc3[nH]ccc23)c(F)c1 [Entry 3, N-({[3-fluoro-4-(7H-pyrrolo[2,3-d]pyrimidin-4-yloxy)phenyl]amino}carbonothioyl)-2-phenylacetamide]	> 500 nM	< 50 nM	50 to 500 nM
O=C(Nc1ccc(F)cc1)C1(C(=O)Nc2ccc(Oc3ncnc4c3cnn4C3CCCCO3)cc2)CC1 (stereo not shown) [Entry 4, N-(4-fluorophenyl)-N′-(4-{[1-(tetrahydro-2H-pyran-2-yl)-1H-pyrazolo[3,4-d]pyrimidin-4-yl]oxy}phenyl)cyclopropane-1,1-dicarboxamide]		> 500 nM	> 500 nM
O=C(Cc1ccccc1)NC(=S)Nc1ccc(Oc2ncnc3c2cnn3C2CCCCO2)cc1 (stereo not shown) [Entry 5, 2-phenyl-N-{[(4-{[1-(tetrahydro-2H-pyran-2-yl)-1H-pyrazolo[3,4-d]pyrimidin-4-yl]oxy}phenyl)amino]carbonothioyl}acetamide]		> 500 nM	> 500 nM
O=C(Nc1ccc(F)cc1)C1(C(=O)Nc2ccc(Oc3ncnc4[nH]ncc34)cc2)CC1 [Entry 6, N-(4-fluorophenyl)-N′-[4-(1H-pyrazolo[3,4-d]pyrimidin-4-yloxy)phenyl]cyclopropane-1,1-dicarboxamide]		> 500 nM	50 to 500 nM
O=C(Cc1ccccc1)NC(=S)Nc1ccc(Oc2ncnc3[nH]ncc23)cc1 [Entry 7, 2-phenyl-N-({[4-(1H-pyrazolo[3,4-d]pyrimidin-4-yloxy)phenyl]amino}carbonothioyl)acetamide]		> 500 nM	> 500 nM
O=C(Nc1ccc(F)cc1)C1(C(=O)Nc2ccc(Oc3ncnc4c3ncn4C3CCCCO3)cc2)CC1 (stereo not shown) [Entry 8, N-(4-fluorophenyl)-N′-(4-{[9-(tetrahydro-2H-pyran-2-yl)-9H-purin-6-yl]oxy}phenyl)cyclopropane-1,1-dicarboxamide]		> 500 nM	> 500 nM
O=C(Cc1ccccc1)NC(=S)Nc1ccc(Oc2ncnc3c2ncn3C2CCCCO2)cc1 (stereo not shown) [Entry 9, 2-phenyl-N-{[(4-{[9-(tetrahydro-2H-pyran-2-yl)-9H-purin-6-yl]oxy}phenyl)amino]carbonothioyl}acetamide]		> 500 nM	> 500 nM
O=C(Nc1ccc(F)cc1)C1(C(=O)Nc2ccc(Oc3ncnc4[nH]cnc34)cc2)CC1 [Entry 10, N-(4-fluorophenyl)-N′-[4-(9H-purin-6-yloxy)phenyl]cyclopropane-1,1-dicarboxamide]		> 500 nM	> 500 nM
O=C(Cc1ccccc1)NC(=S)Nc1ccc(Oc2ncnc3[nH]cnc23)cc1 [Entry 11, 2-phenyl-N-({[4-(9H-purin-6-yloxy)phenyl]amino}carbonothioyl)acetamide]		> 500 nM	> 500 nM
O=C(NCCN1CCOCC1)c1cc2c(Oc3ccc(NC(=O)C4(C(=O)Nc5ccc(F)cc5)CC4)cc3F)ncnc2[nH]1 [Entry 12, N-{3-fluoro-4-[(6-{[(2-morpholin-4-ylethyl)amino]carbonyl}-7H-pyrrolo[2,3-d]pyrimidin-4-yl)oxy]phenyl}-N′-(4-fluorophenyl)cyclopropane-1,1-dicarboxamide]	< 50 nM	< 50 nM	< 50 nM
